Data published in patent publication US7868026B2, “Therapeutic compounds” (Pfizer Inc., priority 2005, dated 2011).
Read-outs that look alike come from different tables or passages of the source.

Columns and labels:
Assay type in all cases: biochemical
[1] = molecular target: T1, CYP3A4 (Homo sapiens, UniProt P08684); test: Determination of IC50 against CYP3A4 by measurement of inhibition of testosterone metabolism (human liver microsomes, 6-β-OH-testosterone by LC-MS/MS); design: 0.1 mg/mL human liver microsomes; details: read-out: IC50 (Testo.)
Procedure, shortened: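 Human liver microsomes (0.1 mg/mL) incubated with 25 μM testosterone and 1 mM NADPH in 100 mM potassium phosphate, pH 7.4, for eight minutes. 6-β-OH-testosterone measured by LC-MS/MS in MRM mode against an internal standard and quantified from a metabolite standard curve.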

[2] = molecular target: T1, CYP3A4; test: Determination of IC50 against CYP3A4 by measurement of inhibition of midazolam metabolism (human liver microsomes, 1-hydroxymidazolam by LC-MS/MS); design: 0.1 mg/mL human liver microsomes; details: 2 μM midazolam, 0.1 mg/mL human liver microsomes
Procedure, shortened: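 Human liver microsomes (0.1 mg/mL) incubated 8 min with 2 μM midazolam and 1 mM NADPH in 100 mM potassium phosphate, pH 7.4. 1-Hydroxymidazolam quantified by LC-MS/MS (MRM) as peak area ratio to internal standard against a metabolite standard curve.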

[3] = molecular target: T1, CYP3A4; test: Determination of compound Kiapp against recombinant CYP3A4 enzyme (BFC fluorescent substrate)
Procedure, shortened: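 Recombinant CYP3A4 (5.5 or 8 nM, with or without b5 depending on source) pre-incubated with inhibitor ≥30 min at room temperature in 100 mM sodium phosphate pH 7.0, 5 mM TCEP, 2% DMF. Reaction started with 200 uM NADPH and 5 uM BFC; initial fluorescence rates over 5 min fitted to Morrison tight-binding (non-partial) or Szedlacsek (partial) equations for Kiapp.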

[4] = Baculo. enzyme preparation, read-out: Kiapp (BFC, Baculo.)
[5] = Super. enzyme preparation, read-out: Kiapp (BFC, Super.)

T1 sequence (P08684 whole entry): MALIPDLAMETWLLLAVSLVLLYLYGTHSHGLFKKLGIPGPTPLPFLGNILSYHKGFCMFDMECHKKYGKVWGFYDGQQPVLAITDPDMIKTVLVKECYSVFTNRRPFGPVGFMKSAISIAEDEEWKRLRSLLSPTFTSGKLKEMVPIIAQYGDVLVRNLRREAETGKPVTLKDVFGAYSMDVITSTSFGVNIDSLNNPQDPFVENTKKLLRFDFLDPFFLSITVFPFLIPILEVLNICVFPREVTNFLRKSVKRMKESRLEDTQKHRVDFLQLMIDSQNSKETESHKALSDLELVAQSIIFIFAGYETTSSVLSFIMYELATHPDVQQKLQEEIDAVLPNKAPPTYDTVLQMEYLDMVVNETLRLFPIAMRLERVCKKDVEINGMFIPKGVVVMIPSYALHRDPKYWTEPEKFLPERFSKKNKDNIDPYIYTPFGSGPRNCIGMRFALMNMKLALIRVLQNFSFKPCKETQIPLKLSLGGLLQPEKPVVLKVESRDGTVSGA

Structure (SMILES)	IC50 [1] [nM]	IC50 [2] [nM]	Ki [3, 4] [nM]	Ki [3, 5] [nM]
Cc1cncc(NS(=O)(=O)c2ccccc2C(=O)NCc2ccc(Cl)c(Cl)c2)c1 [Example 318, N-(3,4-dichlorobenzyl)-2-{[(5-methylpyridin-3-yl)amino]sulfonyl}benzamide]	165	145	9.9	1.9
CC(C)CCNC(=O)c1ccccc1S(=O)(=O)N(C)c1cccnc1 [Example 323, N-(3-methylbutyl)-2-{[methyl(pyridin-3-yl)amino]sulfonyl}benzamide]	59	28	210	221
COc1cncc(NS(=O)(=O)c2ccccc2C(=O)NCC2CCCCC2)c1 [Example 200, N-(cyclohexylmethyl)-2-{[(5-methoxypyridin-3-yl)amino]sulfonyl}benzamide]	21	12	36.1	9.9
COc1cncc(NS(=O)(=O)c2ccccc2C(=O)N(C)Cc2cccc(F)c2)c1 [Example 346, N-(3-fluorobenzyl)-2-{[(5-methoxypyridin-3-yl)amino]sulfonyl}-N-methylbenzamide]	11	19	52	13.2
CC(C)CCN(C)C(=O)c1ccccc1S(=O)(=O)Nc1cccnc1 [Example 371, N-methyl-N-(3-methylbutyl)-2-[(pyridin-3-ylamino)sulfonyl]benzamide]	10	5	248	58.8
COc1cncc(NS(=O)(=O)c2ccccc2C(=O)NC2CCC(C)CC2)c1 (stereo not drawn) [Example 149, 2-{[(5-methoxypyridin-3-yl)amino]sulfonyl}-N-(4-methylcyclohexyl)benzamide]	21	12	208	12.3
O=C(c1ccccc1S(=O)(=O)Nc1cccnc1)N1CCOCC1 [Example 21, 2-(morpholin-4-ylcarbonyl)-N-pyridin-3-ylbenzenesulfonamide]	> 750	> 750	> 1000	
CN(Cc1ccccc1)C(=O)c1ccccc1S(=O)(=O)Nc1cccnc1 [Example 55, N-benzyl-N-methyl-2-[(pyridin-3-ylamino)sulfonyl]benzamide]	54.5	40.6	385	14.2
CCOc1ccncc1NS(=O)(=O)c1ccccc1C(=O)NCCc1ccccc1C [Example 269, 2-{[(4-ethoxypyridin-3-yl)amino]sulfonyl}-N-[2-(2-methylphenyl)ethyl]benzamide]	13	9	18.1	3.31
CN(c1cccnc1)S(=O)(=O)c1ccccc1C(=O)NCC1CCCC1 [Example 332, N-(cyclopentylmethyl)-2-{[methyl(pyridin-3-yl)amino]sulfonyl}benzamide]	13	13	334	61.2
COC[C@@H]1[C@@H]2C[C@@H]3[C@H]1CN(C(=O)c1ccccc1S(=O)(=O)Nc1cncc(OC)c1)[C@@H]3C2 [Example 194, 2-{[(3R,3aR,5R,6aR,7R)-7-(methoxymethyl)hexahydro-3,5-methanocyclopenta[b]pyrrol-1(2H)-yl]carbonyl}-N-(5-methoxypyridin-3-yl)benzenesulfonamide]	99	73	376	68.5
CCCCCNC(=O)c1ccccc1S(=O)(=O)Nc1cncc(C)c1 [Example 360, 2-{[(5-methylpyridin-3-yl)amino]sulfonyl}-N-pentylbenzamide]	43	25	80.8	21.8
COc1cncc(NS(=O)(=O)c2ccccc2C(=O)NCc2cc(Cl)ccc2F)c1 [Example 151, N-(5-chloro-2-fluorobenzyl)-2-{[(5-methoxypyridin-3-yl)amino]sulfonyl}benzamide]	16	28	120	12.2
CCOc1cncc(NS(=O)(=O)c2ccccc2C(=O)NCCc2ccccc2C)c1 [Example 292, 2-{[(5-ethoxypyridin-3-yl)amino]sulfonyl}-N-[2-(2-methylphenyl)ethyl]benzamide]	16	< 3	1.6	0.618
CCOc1ccncc1NS(=O)(=O)c1ccccc1C(=O)NCCC(C)C [Example 271, 2-{[(4-ethoxypyridin-3-yl)amino]sulfonyl}-N-(3-methylbutyl)benzamide]	21	18	118	17.2
COc1ccncc1NS(=O)(=O)c1ccccc1C(=O)NCCc1ccccc1F [Example 222]	34	15	207	12.7
CCCCCNC(=O)c1ccccc1S(=O)(=O)Nc1cncc(OC)c1 [Example 377, 2-{[(5-methoxypyridin-3-yl)amino]sulfonyl}-N-pentylbenzamide]	33	21	76.3	17.6
COc1cncc(NS(=O)(=O)c2ccc(OCCN3CCNCC3)cc2C(=O)NCc2ccc(F)cc2)c1 [Example 253, N-(4-fluorobenzyl)-2-{[(5-methoxypyridin-3-yl)amino]sulfonyl}-5-(2-piperazin-1-ylethoxy)benzamide]	80	50	203	35.2
COc1cncc(NS(=O)(=O)c2ccccc2C(=O)NCC(C)(C)C)c1 [Example 380, N-(2,2-dimethylpropyl)-2-{[(5-methoxypyridin-3-yl)amino]sulfonyl}benzamide]	29	21	215	60.7
COc1ccc(CNC(=O)c2ccccc2S(=O)(=O)Nc2cncc(OC)c2)cc1 [Example 373, N-(4-methoxybenzyl)-2-{[(5-methoxypyridin-3-yl)amino]sulfonyl}benzamide]	49	37	221	45
COc1ccncc1NS(=O)(=O)c1ccccc1C(=O)NCc1ccc(F)c(F)c1 [Example 257, N-(3,4-difluorobenzyl)-2-{[(4-methoxypyridin-3-yl)amino]sulfonyl}benzamide]	14	15	101	14.1
COc1cncc(NS(=O)(=O)c2ccc(OCCCN(C)C)cc2C(=O)N(C)C(C)C)c1 [Example 248, 5-[3-(dimethylamino)propoxy]-N-isopropyl-2-{[(5-methoxypyridin-3-yl)amino]sulfonyl}-N-methylbenzamide]	235	108	439	193
COc1cncc(NS(=O)(=O)c2ccccc2C(=O)NCc2cccc(Cl)c2C)c1 [Example 206, N-(3-chloro-2-methylbenzyl)-2-{[(5-methoxypyridin-3-yl)amino]sulfonyl}benzamide]	6	< 3	3.6	2.9
COc1cncc(NS(=O)(=O)c2ccccc2C(=O)NCCc2cccc(Cl)c2)c1 [Example 152, N-[2-(3-chlorophenyl)ethyl]-2-{[(5-methoxypyridin-3-yl)amino]sulfonyl}benzamide]	23	13	46.1	6.4
COc1cncc(NS(=O)(=O)c2ccccc2C(=O)NCc2ccc(C#N)cc2Cl)c1 [Example 203, N-(2-chloro-4-cyanobenzyl)-2-{[(5-methoxypyridin-3-yl)amino]sulfonyl}benzamide]	12	5	101	25.8
CN(Cc1cccc(F)c1)C(=O)c1ccccc1S(=O)(=O)Nc1cccnc1 [Example 350, N-(3-fluorobenzyl)-N-methyl-2-[(pyridin-3-ylamino)sulfonyl]benzamide]	39	20	139	21.4
CC1(C)CCCN(C(=O)c2ccccc2S(=O)(=O)Nc2cccnc2)C1 [Example 29, 2-[(3,3-dimethylpiperidin-1-yl)carbonyl]-N-pyridin-3-ylbenzenesulfonamide]	172	76	324	
CCOc1cncc(NS(=O)(=O)c2ccccc2C(=O)N2CCOCC2)c1 [Example 305, N-(5-ethoxypyridin-3-yl)-2-(morpholin-4-ylcarbonyl)benzenesulfonamide]	> 750	347	753	270
COc1ccncc1NS(=O)(=O)c1ccccc1C(=O)N1CCCCC1 [Example 18, N-(4-methoxypyridin-3-yl)-2-(piperidin-1-ylcarbonyl)benzenesulfonamide]	349	146	570	
COc1cncc(NS(=O)(=O)c2ccccc2C(=O)NCc2cc(F)cc(F)c2)c1 [Example 184, N-(3,5-difluorobenzyl)-2-{[(5-methoxypyridin-3-yl)amino]sulfonyl}benzamide]	11	13	54.5	5.9
